# Assay results taken from PubChem BioAssay (NCI).
#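 A five-concentration, 48-hour dose response in 96-well plates underlies each endpoint, interpolated linearly between surrounding concentrations. At the TGI there is no net growth.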
# Assays:
# Test in all cases: NCI tumour cell line growth inhibition, 48 h
# DMS 114 small cell lung = system: DMS 114 small cell lung
# XF 498 CNS = system: XF 498 CNS
# LXFL 529 NSCLC = system: LXFL 529 NSCLC
# SNB-78 CNS = system: SNB-78 CNS
# HOP-18 NSCLC = system: HOP-18 NSCLC
# P388 leukemia = system: P388 leukemia
# P388/ADR leukemia = system: P388/ADR leukemia
# SN12K1 renal = system: SN12K1 renal
Structure (SMILES),TGI (DMS 114 small cell lung) [µM],TGI (XF 498 CNS) [µM],TGI (LXFL 529 NSCLC) [µM],TGI (SNB-78 CNS) [µM],TGI (HOP-18 NSCLC) [µM],TGI (P388 leukemia) [µM],TGI (P388/ADR leukemia) [µM],TGI (SN12K1 renal) [µM]
ONc1ncnc2nc[nH]c12,> 100,> 100,> 100,,,,,
CCCc1[nH]c(SCCCCCCCCSc2nc(-c3ccc(F)cc3)c(CCC)[nH]2)nc1-c1ccc(F)cc1,> 100,,> 100,> 100,> 100,,,
CCS(=O)(=O)Nc1ccc(Nc2c3ccccc3nc3ccccc23)c(OC)c1,5.53,2.01,,18.4,7.92,0.214,1.53,4.11
Cc1cccc2nc3c(C(=O)NCCN(C)C)cccc3cc12,3.37,3.24,,12.6,6.64,11.7,11.8,5.26
Cc1nc(N)nc(N)c1-c1ccc(Cl)c(Cl)c1,> 100,> 100,> 100,> 100,> 100,,,
CCOC(=O)c1nc2ccc(Cl)cc2c2c1Cc1ccccc1-2,,> 100,> 100,> 100,> 100,,,
